Assay results published in patent US20210186970A1, “SELECTIVE CALCIUM CHANNEL ANTAGONISTS” (Northwestern University, priority 2011, published 2021).
Values joined by “and” are separate entries in the source; they are usually repeats but may differ in a detail not shown here. Equal values may be shown once.

What was measured:
[1] = molecular target: T1, Cav1.3 L-type Ca channels (Rattus norvegicus, UniProt P27732); assay: FLIPR Fluo-8 calcium assay, Cav1.3 channel inhibition in HEK293 cells; type: cell-based; conditions: for selectivity for Cav1.3 over Cav1.2: ratio of IC50 values for the two cell lines
T1 construct: expressed in transfected cells; host or cells: HEK293

[2] = molecular target: Cav1.2 L-type Ca channels (Oryctolagus cuniculus, UniProt P15381); assay: FLIPR Fluo-8 calcium assay, Cav1.2 channel inhibition in HEK293 cells
Cav1.2 L-type Ca channels, sequence (P15381 whole entry): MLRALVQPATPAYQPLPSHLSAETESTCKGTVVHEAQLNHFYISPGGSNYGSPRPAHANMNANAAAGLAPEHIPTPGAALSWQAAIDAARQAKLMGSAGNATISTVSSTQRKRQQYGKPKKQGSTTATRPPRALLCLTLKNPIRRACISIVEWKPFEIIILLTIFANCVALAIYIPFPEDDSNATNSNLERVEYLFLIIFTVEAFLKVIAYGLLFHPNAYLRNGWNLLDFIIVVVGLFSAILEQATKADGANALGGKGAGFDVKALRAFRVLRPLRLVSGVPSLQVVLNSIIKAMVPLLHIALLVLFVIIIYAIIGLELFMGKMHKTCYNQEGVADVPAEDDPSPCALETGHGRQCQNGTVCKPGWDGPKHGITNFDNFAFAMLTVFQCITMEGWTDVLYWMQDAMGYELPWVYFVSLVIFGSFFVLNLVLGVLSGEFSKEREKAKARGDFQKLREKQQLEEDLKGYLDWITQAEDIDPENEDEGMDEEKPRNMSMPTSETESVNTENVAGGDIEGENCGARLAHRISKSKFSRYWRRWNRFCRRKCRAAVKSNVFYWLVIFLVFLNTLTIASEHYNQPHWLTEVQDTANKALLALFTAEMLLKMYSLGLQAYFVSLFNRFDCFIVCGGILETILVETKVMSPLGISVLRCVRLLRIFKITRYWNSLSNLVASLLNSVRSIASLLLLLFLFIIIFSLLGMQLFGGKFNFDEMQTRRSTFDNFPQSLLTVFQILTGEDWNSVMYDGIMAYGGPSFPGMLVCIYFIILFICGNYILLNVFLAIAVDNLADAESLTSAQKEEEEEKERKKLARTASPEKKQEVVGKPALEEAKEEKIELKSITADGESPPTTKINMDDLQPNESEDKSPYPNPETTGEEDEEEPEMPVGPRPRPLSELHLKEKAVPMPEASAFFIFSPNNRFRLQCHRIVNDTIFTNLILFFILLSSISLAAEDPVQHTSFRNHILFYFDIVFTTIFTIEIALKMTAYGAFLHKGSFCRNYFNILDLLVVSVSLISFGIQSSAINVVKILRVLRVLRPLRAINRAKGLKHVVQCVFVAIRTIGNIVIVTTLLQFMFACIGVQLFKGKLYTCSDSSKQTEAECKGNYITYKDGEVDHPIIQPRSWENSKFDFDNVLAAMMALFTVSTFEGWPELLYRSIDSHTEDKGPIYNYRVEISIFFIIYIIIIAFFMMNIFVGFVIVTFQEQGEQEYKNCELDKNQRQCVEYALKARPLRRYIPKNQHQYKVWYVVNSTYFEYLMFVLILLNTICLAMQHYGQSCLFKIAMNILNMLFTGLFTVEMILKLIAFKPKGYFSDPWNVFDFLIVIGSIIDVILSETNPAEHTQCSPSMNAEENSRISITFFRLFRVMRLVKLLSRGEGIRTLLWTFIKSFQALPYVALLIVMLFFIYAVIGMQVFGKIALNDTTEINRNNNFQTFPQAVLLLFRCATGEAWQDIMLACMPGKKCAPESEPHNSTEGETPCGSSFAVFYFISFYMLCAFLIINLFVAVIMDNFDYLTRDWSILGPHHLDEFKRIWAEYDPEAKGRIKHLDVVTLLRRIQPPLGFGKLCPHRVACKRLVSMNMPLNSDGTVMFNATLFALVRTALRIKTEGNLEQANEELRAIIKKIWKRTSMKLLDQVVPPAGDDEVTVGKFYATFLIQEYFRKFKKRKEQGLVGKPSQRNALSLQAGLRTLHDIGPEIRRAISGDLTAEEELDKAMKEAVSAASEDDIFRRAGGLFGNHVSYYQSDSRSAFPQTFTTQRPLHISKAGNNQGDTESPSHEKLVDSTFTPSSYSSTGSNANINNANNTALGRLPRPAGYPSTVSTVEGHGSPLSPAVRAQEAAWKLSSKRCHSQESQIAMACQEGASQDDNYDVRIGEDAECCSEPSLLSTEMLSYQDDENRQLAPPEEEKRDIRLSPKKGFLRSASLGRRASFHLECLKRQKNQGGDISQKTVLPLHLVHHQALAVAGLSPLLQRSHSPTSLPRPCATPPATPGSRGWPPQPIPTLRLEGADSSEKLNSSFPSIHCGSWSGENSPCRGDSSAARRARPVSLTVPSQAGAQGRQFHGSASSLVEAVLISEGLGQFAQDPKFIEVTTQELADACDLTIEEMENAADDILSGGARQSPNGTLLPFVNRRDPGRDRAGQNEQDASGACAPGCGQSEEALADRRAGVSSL
Cav1.2 L-type Ca channels, sequence (P54284 whole entry partner): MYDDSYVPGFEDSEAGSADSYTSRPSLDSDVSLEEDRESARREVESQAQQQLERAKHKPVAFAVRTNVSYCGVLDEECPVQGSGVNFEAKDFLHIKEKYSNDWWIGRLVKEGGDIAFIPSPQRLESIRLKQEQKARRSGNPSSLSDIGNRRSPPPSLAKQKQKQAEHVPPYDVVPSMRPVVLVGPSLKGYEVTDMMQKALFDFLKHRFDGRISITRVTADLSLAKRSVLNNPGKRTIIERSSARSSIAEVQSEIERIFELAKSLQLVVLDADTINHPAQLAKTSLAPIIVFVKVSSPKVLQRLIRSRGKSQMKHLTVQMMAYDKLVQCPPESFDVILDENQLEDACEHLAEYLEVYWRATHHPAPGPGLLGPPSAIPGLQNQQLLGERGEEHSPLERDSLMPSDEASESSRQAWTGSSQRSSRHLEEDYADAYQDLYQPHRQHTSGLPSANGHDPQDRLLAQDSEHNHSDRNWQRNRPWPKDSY
Cav1.2 L-type Ca channels, sequence (P54289 25-956 partner limits assumed): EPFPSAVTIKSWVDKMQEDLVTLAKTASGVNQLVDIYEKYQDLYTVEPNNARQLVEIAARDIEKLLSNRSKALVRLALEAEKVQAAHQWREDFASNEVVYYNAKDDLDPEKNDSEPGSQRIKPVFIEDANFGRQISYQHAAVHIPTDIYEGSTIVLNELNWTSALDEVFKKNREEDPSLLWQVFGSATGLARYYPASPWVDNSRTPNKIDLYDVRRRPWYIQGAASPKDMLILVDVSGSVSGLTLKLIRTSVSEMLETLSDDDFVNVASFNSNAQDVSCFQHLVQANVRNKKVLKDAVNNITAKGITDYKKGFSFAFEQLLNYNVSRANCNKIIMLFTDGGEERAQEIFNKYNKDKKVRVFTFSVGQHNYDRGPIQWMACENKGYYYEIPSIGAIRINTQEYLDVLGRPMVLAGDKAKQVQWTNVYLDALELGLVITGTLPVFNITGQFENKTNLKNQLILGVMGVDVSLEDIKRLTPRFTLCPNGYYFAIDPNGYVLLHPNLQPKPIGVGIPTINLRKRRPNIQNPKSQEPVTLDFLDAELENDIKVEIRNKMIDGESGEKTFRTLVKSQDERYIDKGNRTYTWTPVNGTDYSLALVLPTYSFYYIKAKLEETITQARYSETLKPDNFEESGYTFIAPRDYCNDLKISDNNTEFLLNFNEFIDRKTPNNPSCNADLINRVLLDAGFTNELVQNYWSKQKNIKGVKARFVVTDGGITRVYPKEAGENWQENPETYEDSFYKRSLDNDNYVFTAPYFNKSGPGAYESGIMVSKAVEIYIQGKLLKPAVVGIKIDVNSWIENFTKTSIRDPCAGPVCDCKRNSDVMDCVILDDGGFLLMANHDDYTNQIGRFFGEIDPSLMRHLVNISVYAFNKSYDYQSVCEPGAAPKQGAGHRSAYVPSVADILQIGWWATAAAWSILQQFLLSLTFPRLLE
Cav1.2 L-type Ca channels, sequence (P54289 957-1103 partner limits assumed): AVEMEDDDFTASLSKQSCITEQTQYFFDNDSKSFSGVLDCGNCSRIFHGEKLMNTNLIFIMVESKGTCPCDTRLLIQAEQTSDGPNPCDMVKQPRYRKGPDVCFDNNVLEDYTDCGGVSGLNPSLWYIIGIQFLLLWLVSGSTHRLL

[3] = molecular target: T2, Cav1.3 (α1D) LTCC (Rattus norvegicus, UniProt P27732); assay: Whole-cell voltage-clamp recordings, Cav1.3 LTCC in HEK293 cells; type: cell-based
T2 construct: expressed in transfected cells; host or cells: HEK-293, stably transfected
Protocol: (§1) Using the same cell lines from the initial screening, whole-cell voltage clamp recordings were made of either Cav1.3 LTCC or Cav1.2 LTCC containing HEK293 cells in the absence or presence of SKP00 4C08 at 1 μM. Bath application of SKP00 4C08 blocks ˜35% of the Cav1.3 channel current. SKP00 4C08 at the same concentration had no effect on Cav1.2 channel currents.
(§2) Bioactivity Confirmation Using Whole-cell Patch Clamp. Because IC50 values depend strongly on assay conditions, the inhibitory activity of compound 8 (SKP00 4C08) was confirmed at Cav1.3 and Cav1.2 channels in HEK293 cells by whole-cell voltage-clamp electrophysiological recordings (FIG. 8).
(§3) Whole-cell voltage-clamp recordings (FIG. 8A) were made in the absence (black, top) or presence (red, top) of compound 8 (SKP00 4C08) (5 μM). Superfusion of selected PYT blocks evoked barium currents in both LTCC cell lines in keeping with the data from our initial screen (FIG. 5B).
General Procedure for Whole-cell Patch Clamp. HEK-293 cells were stably transfected with rat Cav1.3 (α1D) or rabbit Cav1.2 (α1C), Cavβ3, and Cavα2δ-1 and were cultured as previously reported (Chan et al. (2007) Nature 447:1081-1086.; herein incorporated by reference in its entirety). After 24-48 h of incubation at 37° C., cells underwent whole-cell patch-clamp electrophysiology. The external solution contained the following (in mM): 140 NaCl, 1 MgCl2, 10 BaCl2, 10 HEPES, 10 dextrose, 10 sucrose, and 20 CsCl at pH 7.4 and an osmolarity of ˜320 mOSml^−1. The test compound stock solutions in DMSO (10 mM or just DMSO) were diluted with the external solution to the desired concentration (10^−9 to 10^−6M), which was perfused (2 mL/min) into the bath while measuring the evoked barium currents. For experiments where dose-response curves were obtained, local perfusion of the desired concentration was employed. Barium currents were measured from whole-cell voltage patch-clamp recordings using a Pulse 8.4 software data acquisition system (HEKA, Germany). […] Electrophysiological signals were analyzed using […] […]

[4] = molecular target: T3, Cav1.2 (α1C) L-type calcium channel (Oryctolagus cuniculus, UniProt P15381); assay: Whole-cell voltage-clamp recordings, Cav1.2 LTCC in HEK293 cells; type: cell-based, rabbit; conditions: rabbit, pH 7.4; 5 μM, whole-cell voltage clamp; read-out: inhibition of Cav1.2 channels
T3 construct: expressed in transfected cells; host or cells: HEK-293, stably transfected
T3 sequence (P15381 whole entry): as the sequence (P15381 whole entry) above
T3 sequence (P54284 whole entry partner): as the sequence (P54284 whole entry partner) above
T3 sequence (P54289 25-956 partner limits assumed): as the sequence (P54289 25-956 partner limits assumed) above
T3 sequence (P54289 957-1103 partner limits assumed): as the sequence (P54289 957-1103 partner limits assumed) above
Protocol: as §1, §2, §3
(§4) General Procedure for Whole-cell Patch Clamp. […] Barium currents were measured from whole-cell voltage patch-clamp recordings using a Pulse 8.4 software data acquisition system (HEKA, Germany). […] Electrophysiological signals were analyzed using […] […]

[5] = molecular target: T4, Cav1.2 (α1C) LTCC (Oryctolagus cuniculus, UniProt P15381); assay: as above; type: cell-based, rabbit; conditions: 1 μM
T4 construct: expressed in transfected cells; host or cells: HEK-293, stably transfected
T4 sequence (P15381 whole entry): as the sequence (P15381 whole entry) above
T4 sequence (P54284 whole entry partner): as the sequence (P54284 whole entry partner) above
T4 sequence (P54289 25-956 partner limits assumed): as the sequence (P54289 25-956 partner limits assumed) above
T4 sequence (P54289 957-1103 partner limits assumed): as the sequence (P54289 957-1103 partner limits assumed) above
Protocol: as §1, §2, §3, §4

[6] = IC50 (μM) CaV1.3, first library, FLIPR, HEK293, value (±SD)
[7] = IC50 (μM) Cav1.3, Table 4, 12 concentration points (0.1 nM~100 μM) in duplicate
[8] = Table 4, Cav1.3 relative to Cav1.2 from IC50 values
[9] = first library, ratio of IC50 Cav1.2 to Cav1.3
[10] = IC50 (μM) CaV1.2, first library, FLIPR, HEK293, value (±SD)
[11] = IC50 (μM) Cav1.2, Table 4, 12 concentration points (0.1 nM~100 μM) in duplicate
[12] = IC50 (μM) Cav1.3, second library, FLIPR, HEK293, value (±SD)
[13] = second library, ratio of IC50 Cav1.2 to Cav1.3
[14] = IC50 (μM) Cav1.2, second library, FLIPR, HEK293, value (±SD)
[15] = IC50 (μM) Cav1.3, third library, FLIPR, HEK293, value (±SD)
[16] = third library, ratio of IC50 Cav1.2 to Cav1.3
[17] = IC50 (μM) Cav1.2, third library, FLIPR, HEK293, value (±SD)

Row | Structure (SMILES) | IC50 [1, 7] [µM] | Selectivity [1, 8] | melting point [°C] | IC50 [2, 11] [µM] | IC50 [1, 15] [µM] | Selectivity [1, 16] | IC50 [2, 17] [µM] | also measured
1 | O=C1CC(=O)N(C2CCCCC2)C(=O)N1CCc1ccc(Cl)cc1 [Compound 1, N-(4-chlorophenethyl)-N′-cyclohexyl-pyrimidine-2,4,6-(1H,3H,5H)-trione] | 1.1 | 35 | 146 to 148 | 38.8 |  |  |  | IC50 [1, 6]: 1.1 µM; Selectivity [1, 9]: 35.1; IC50 [2, 10]: 38.8 µM
2 | O=C1CC(=O)N(C2CCCC2)C(=O)N1CCCCc1ccccc1 [Compound 2, N-cyclopentyl-N′-(4-phenylbutyl)-pyrimidine-2,4,6-(1H,3H,5H)-trione] | 1.3 | 34 | 85 to 87 | 43.8 |  |  |  | IC50 [1, 6]: 1.3 µM; Selectivity [1, 9]: 33.7; IC50 [2, 10]: 43.8 µM
3 | O=C1CC(=O)N(C2CCCCC2)C(=O)N1CCc1cccc(Cl)c1 [Compound 3, N-(3-chlorophenethyl)-N′-cyclohexyl-pyrimidine-2,4,6-(1H,3H,5H)-trione] | 1.4 | 38 | 153 to 154 | 53.1 |  |  |  | IC50 [1, 6]: 1.4 µM; Selectivity [1, 9]: 38.0; IC50 [2, 10]: 53.1 µM
4 | Cc1cccc(CCN2C(=O)CC(=O)N(C3CCCCC3)C2=O)c1 [Compound 4, N-cyclohexyl-N′-(3-methylphenethyl)-pyrimidine-2,4,6-(1H,3H,5H)-trione] | 2.2 | 35 | 182 to 183 | 77.1 |  |  |  | IC50 [1, 12]: 2.2 µM; Selectivity [1, 13]: 35.4; IC50 [2, 14]: 77.1 µM
5 | O=C1CC(=O)N(C2CCCCC2)C(=O)N1CCc1cccc(Br)c1 [Compound 5, N-(3-bromophenethyl)-N′-cyclohexyl-pyrimidine-2,4,6-(1H,3H,5H)-trione] | 1.3 | 34 | 154 to 155 | 45.8 |  |  |  | IC50 [1, 12]: 1.3 µM; Selectivity [1, 13]: 34.0; IC50 [2, 14]: 45.8 µM
6 | O=C1CC(=O)N(C2CCCCC2)C(=O)N1CCc1cccc(C(F)(F)F)c1 [Compound 6, N-cyclohexyl-N′-(3-thrifluoromethylphenethyl)-pyrimidine-2,4,6-(1H,3H,5H)-trione] | 1.3 | 20 | 105 to 107 | 25.8 |  |  |  | IC50 [1, 12]: 1.3 µM; Selectivity [1, 13]: 20.3; IC50 [2, 14]: 25.8 µM
7 | O=C1CC(=O)N(C2CCCC2)C(=O)N1CCc1cccc(C(F)(F)F)c1 [Compound 7, N-cyclopentyl-N′-(3-thrifluoromethylphenethyl)-pyrimidine-2,4,6-(1H,3H,5H)-trione] | 1.1 | 305 | 97 to 98 | 326 | 1.1 | 305.4 | 326 | 
8 | O=C1CC(=O)N(C2CCCC2)C(=O)N1CCc1cccc(Cl)c1 [Compound 8, N-(3-chlorophenethyl)-N′-cyclopentyl-pyrimidine-2,4,6-(1H,3H,5H)-trione] | 1.7 | 1008 | 131 to 132 | 1730 | 1.7 | 1008.2 | 1730 | IC50 ([1]; IC50 with Cav1.3): 1.61 µM and 1.7 µM; inhibition ratio Cav1.3 vs Cav1.2, FLIPR assay ([1]; at 5.5 (unit not given)): 11 fold; selectivity for Cav1.3 over Cav1.2 [1]: 1000 fold; selectivity for Cav1.3 over Cav1.2 ([1]; listed as SKP00 4C08): greater than 1000 fold; block of Cav1.3 channel current ([3]; 1 μM, bath application): ~35%; inhibition ratio Cav1.3 vs Cav1.2 ([3]; 5 μM, whole-cell voltage clamp): roughly 12 fold; inhibition at 5 µM ([3]; HEK293, 5 μM, whole-cell voltage clamp, read-out: inhibition of Cav1.3 channels): 43.8 ± 11%; inhibition at 5 µM [4]: 3.8 ± 2.9%; effect on Cav1.2 channel currents [5]: no effect
9 | O=C1CC(=O)N(C23CC4CC(CC(C4)C2)C3)C(=O)N1CCc1ccc(Cl)cc1 [Compound 114] |  |  |  |  | 3.2 | 0.8 | 2.6 | 
10 | O=C1CC(=O)N(C23CC4CC(CC(C4)C2)C3)C(=O)N1CCc1cccc(Cl)c1 [Compound 115] |  |  |  |  | 2.6 | 0.7 | 1.9 | 
11 | O=C1CC(=O)N(C2C3CC4CC(C3)CC2C4)C(=O)N1CCc1ccc(Cl)cc1 (centres unmarked) [Compound 116] |  |  |  |  | 2.5 | 18.3 | 40.4 | 
12 | O=C1CC(=O)N(C2C3CC4CC(C3)CC2C4)C(=O)N1CCc1cccc(Cl)c1 (centres unmarked) [Compound 117] |  |  |  |  | 1.6 | 2.0 | 3.1 | 
